Several values for one entry are separate records, joined by “and”; a condition that tells them apart may be missing. Equal entries are not always repeated. Where two headings read alike, the source gives them in different places.
Columns and labels:
rat = conditions: cited from earlier work
[1] = relative volatility compared to butyl acetate; cited from earlier work
[2] = cited from earlier work
[3] = Colorant solubility in solvent; conditions: for PPM dye soluble: 10 g solvent added to 0.4 g D&C Violet #2, shaken 30 minutes, stood 30 minutes
Experimental: For the remaining solvents, colorant solubility was assessed in terms of the solubility of D&C Violet #2. Briefly, 10 g of each of the solvents listed in Table 5 was added to 0.4 g of dye in 12 ml test tubes. The samples were shaken for 30 minutes then allowed to stand for 30 minutes. After standing, 5 ml of the top layer was removed and weighed into pre-weighed aluminum weigh boats where the solvent was allowed to evaporate before re-weighing.

[4] = Solvent miscibility and compatibility with octyl cyanoacrylate; assay type: physicochemical; parameters: key: V = slightly viscous; VV = viscous; VVV = very viscous; Lyr = layers; Pl = pale; Lt = light; Y = yellow; RX = reacts; Gry = grey; Brn = brown; Blk = black; conditions: 3 ml solvent + 3 ml OCA
Experimental: (§1) Next, the solvents were tested for miscibility and compatibility with cyanoacrylate esters. Briefly, beginning with 3 ml samples each of butyl cyanoacrylate (BCA), octyl cyanoacrylate (OCA) and ethoxyethyl cyanoacrylate (EECA), 3 ml of each solvent was added drop-wise to each cyanoacrylate sample and agitated to aid mixing. Observations of the samples were taken immediately and then at regular intervals over 7 days. […] The remaining 10 solvents were ranked according to their compatibility with the cyanoacrylate esters based primarily on their compatibility with BCA over 7 days, secondarily on their compatibility with OCA, and finally on their miscibility with EECA.

[5] = Solvent compatibility with viscosity-increasing polymer, viscosity of solution: IB; assay type: physicochemical
[6] = Solvent compatibility with viscosity-increasing polymer, viscosity of solution: VEE; assay type: physicochemical; parameters: unit not given here; conditions: polymer added at 5% by weight, up to 3 days agitation
[7] = Solvent miscibility and compatibility with ethoxyethyl cyanoacrylate; assay type: physicochemical; conditions: 3 ml solvent + 3 ml EECA
Experimental: as §1

[8] = Solvent compatibility with viscosity-increasing polymer, viscosity of solution: CAB; assay type: physicochemical; parameters: unit not given here; conditions: polymer added at 5% by weight, up to 3 days agitation
[9] = Solvent compatibility with viscosity-increasing polymer, viscosity of solution: MMA; assay type: physicochemical; parameters: unit not given here; conditions: polymer added at 5% by weight, up to 3 days agitation

Molecule	VL (volatility) [1]	VP (vapor pressure) ([2]; at 20 ° C.)	TOX (toxicity, LD50) (rat; oral dose administered to rat) [mg/kg]	also measured
O=C1CCCCC1 [Cyclohexanone]	0.29	–	–	TOX (toxicity, LD50) (rat; rat, in vivo, po): 1000 mg/kg; VP (vapor pressure) ([2]; at 25 ° C.): 5@25 mmHg
CCCOC(C)=O [Propyl acetate]	3.0	25@20 mmHg	–	TOX (toxicity, LD50) (rat; rat, in vivo, po): 6640 mg/kg
Xylene	0.7	9@20 mmHg	3910	–
C1CCCCC1 [Cyclohexane]	2.6	95@20 mmHg	–	TOX (toxicity, LD50) (rat; rat, in vivo, po): 12705 mg/kg; PPM dye soluble [3]: 600 PPM; Dye solubility, suitability ([3]; D&C Violet #2): insufficient dye solubility; OCA compatibility, 1 Day [4]: V; OCA compatibility, 2 Day [4]: VV; OCA compatibility, 7 Day [4]: VV; Dissolution of polyisobutylene ([5]; 5% by weight, up to 3 days): partially dissolve; Viscosity of solution with IB ([5]; polymer added at 5% by weight, up to 3 days agitation): 59; Viscosity of solution with VEE [6]: 4.5; EECA compatibility, 1 Day ([7]; 1 Day): 2Lyr; EECA compatibility, 2 Day ([7]; 2 Day): 2Lyr; EECA compatibility, 7 Day ([7]; 7 Day): 2Lyr; EECA compatibility, Time 0 ([7]; time 0): 2Lyr
CCOCC [Diethyl ether]	37.5	440@20 mmHg	–	Viscosity of solution with VEE [6]: 1.2
CC(Cl)CCl (stereo not drawn) [Dichloropropane]	−1	40@20 mmHg	1947	–
CC1CCCCC1 [Methyl cyclohexane]	2.99	37@20 mmHg	2250	–
CCCOCC(C)O (stereo not drawn) [PGPE (Arcosolv)]	0.21	1.7@20 mmHg	–	–
CC(=O)OC(C)C [t-propyl acetate]	–	–	6750	PPM dye soluble [3]: 2200 PPM; VP (vapor pressure) ([2]; at 25 ° C.): 59@25 mmHg
CCCCC(CC)CO (stereo not drawn) [2-ethyl hexanol]	0.01	0.36@20^ mmHg	–	TOX (toxicity, LD50) (rat; rat, in vivo, po): 3730 mg/kg
COCCO [Methoxy ethanol]	−1	6.2@20 mmHg	2370	–
CCCCOCCO [Butoxyethanol]	–	0.8@20 mmHg	–	–
CCC(C)=O [Butanone]	2.7	–	2737	OCA compatibility, 1 Day [4]: V; OCA compatibility, 2 Day [4]: VV; OCA compatibility, 7 Day [4]: VV; Viscosity of solution with CAB [8]: 1.8; Viscosity of solution with MMA [9]: 4.5 and 4.2; VP (vapor pressure) ([2]; at 60 ° C.): 400@60 mmHg
C1COCCO1 [1,4 Dioxane]	2.7	27@20 mmHg	–	OCA compatibility, 7 Day [4]: VVV; Viscosity of solution with CAB [8]: 6.9; Viscosity of solution with MMA [9]: 17
C[N+](=O)[O-] [Nitromethane]	1.39	28@20 mmHg	–	–
CCCCOC(C)=O [Butyl acetate]	1	–	–	TOX (toxicity, LD50) (rat; rat, in vivo, po): 10768 mg/kg
COCCOCCOC [2-methoxy ethyl ether]	–	–	–	VP (vapor pressure) ([2]; at 25 ° C.): 3@25 mmHg

Reference: US20150136150A1, “DURABLE SKIN MARKING COMPOSITIONS” (OP-MARKS, INC., priority 2011, published 2015)
